The values that follow come from US20240327364A1, “THERAPEUTIC TARGETING OF GPR68 TO INDUCE FERROPTOSIS” (University Of Maryland, Baltimore, priority 2023, published 2024).

Marks after values point to notes of the source that are not given here.

One experiment addresses T1, ERBB4 (Homo sapiens, UniProt Q15303).
T1 construct: purchased DiscoveRx (Fremont, CA)
The experiment is described as follows: KinomeScan. In kind it is binding. The following applies: read-out: % Control.

The next experiment deals with T2, OX2 (Homo sapiens, UniProt O43614).
T2 construct: host or cells: Chem-1 cells expressing Gα15
T2 sequence (O43614 whole entry): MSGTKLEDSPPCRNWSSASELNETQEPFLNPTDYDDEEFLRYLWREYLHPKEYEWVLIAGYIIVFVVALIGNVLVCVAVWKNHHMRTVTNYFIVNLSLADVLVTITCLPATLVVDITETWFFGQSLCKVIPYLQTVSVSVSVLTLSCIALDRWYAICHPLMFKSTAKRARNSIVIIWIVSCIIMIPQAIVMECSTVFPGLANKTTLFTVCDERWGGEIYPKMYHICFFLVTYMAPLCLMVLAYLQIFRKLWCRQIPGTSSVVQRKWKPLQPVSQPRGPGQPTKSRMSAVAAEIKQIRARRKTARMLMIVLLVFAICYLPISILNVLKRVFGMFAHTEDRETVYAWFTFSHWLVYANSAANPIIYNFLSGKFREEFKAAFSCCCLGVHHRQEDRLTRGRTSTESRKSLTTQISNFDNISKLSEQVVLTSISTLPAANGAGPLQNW
Briefly: GPCR Profiler. The class given is cell-based.

For another experiment, the target named is CSNK1G2 (Homo sapiens, UniProt P78368). Briefly: KinomeScan. The class given is binding. The conditions noted are these: read-out: % Control.
Another experiment concerns the target T3, AURKA (Homo sapiens, UniProt O14965).
T3 construct: purchased DiscoveRx (Fremont, CA)
The experiment is described as follows: KinomeScan. In kind it is binding. The conditions noted are these: read-out: % Control.

For a further experiment, the target named is T4, CCR7 (Homo sapiens, UniProt P32248).
T4 construct: host or cells: Chem-1 cells with Gα15
T4 sequence (P32248 25-378, species assumed): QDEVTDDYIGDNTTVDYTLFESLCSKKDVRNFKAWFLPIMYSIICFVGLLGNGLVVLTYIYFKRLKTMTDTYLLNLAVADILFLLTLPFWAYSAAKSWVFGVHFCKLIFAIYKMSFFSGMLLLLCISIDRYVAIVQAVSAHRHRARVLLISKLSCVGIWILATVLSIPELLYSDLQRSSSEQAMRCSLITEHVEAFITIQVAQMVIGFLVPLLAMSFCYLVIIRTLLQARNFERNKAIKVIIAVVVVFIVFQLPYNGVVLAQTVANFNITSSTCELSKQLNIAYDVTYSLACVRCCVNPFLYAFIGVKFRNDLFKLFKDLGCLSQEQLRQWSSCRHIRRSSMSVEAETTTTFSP
The experiment is described as follows: GPCR Profiler. The class given is cell-based.

A further experiment addresses T5, DAPK2 (Homo sapiens, UniProt Q9UIK4).
T5 construct: purchased DiscoveRx (Fremont, CA), KinomeScan service
The experiment is described as follows: KinomeScan. The following applies: read-out: % Control. The class given is binding.

The target in the next experiment is T6, RET(V804M) (Homo sapiens, UniProt P07949, V804M).
T6 construct: purchased DiscoveRx (Fremont, CA)
The experiment is described as follows: KinomeScan. In kind it is binding. The conditions noted are these: read-out: % Control.

The next experiment addresses T7, CAMK1 (Homo sapiens, UniProt Q14012).
T7 construct: purchased DiscoveRx (KinomeScan service)
The experiment is described as follows: KinomeScan. In kind it is binding. The conditions noted are these: read-out: % Control.

Another experiment deals with T8, MAP4K5 (Homo sapiens, UniProt Q9Y4K4).
T8 construct: purchased DiscoveRx (Fremont, CA)
The experiment is described as follows: KinomeScan. The class given is binding. The following applies: read-out: % Control.

The next experiment has as its target T9, EPHB1 (Homo sapiens, UniProt P54762).
T9 construct: purchased DiscoveRx (Fremont, CA)
The experiment is described as follows: KinomeScan. In kind it is binding. The conditions noted are these: read-out: % Control.

Another experiment deals with T10, CRF2 (Homo sapiens, UniProt Q13324).
T10 construct: host or cells: Chem-1 cells with Gα15
T10 sequence (Q13324 whole entry): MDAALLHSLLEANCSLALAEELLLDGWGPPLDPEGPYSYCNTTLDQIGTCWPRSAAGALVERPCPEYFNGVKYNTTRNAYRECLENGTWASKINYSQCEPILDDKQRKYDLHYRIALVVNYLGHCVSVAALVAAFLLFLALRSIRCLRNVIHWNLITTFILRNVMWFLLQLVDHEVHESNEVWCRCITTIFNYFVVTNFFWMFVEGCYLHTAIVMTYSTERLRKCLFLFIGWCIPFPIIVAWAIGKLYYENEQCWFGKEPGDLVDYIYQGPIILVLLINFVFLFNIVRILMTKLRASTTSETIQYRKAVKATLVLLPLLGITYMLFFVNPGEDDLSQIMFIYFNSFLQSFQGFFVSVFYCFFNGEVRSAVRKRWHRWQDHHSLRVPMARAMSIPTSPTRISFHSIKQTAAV
The experiment is described as follows: GPCR Profiler. In kind it is cell-based.

The next experiment deals with T11, TLK2 (Homo sapiens, UniProt Q86UE8).
T11 construct: purchased DiscoveRx (Fremont, CA)
Briefly: KinomeScan. In kind it is binding. The following applies: read-out: % Control.

A further experiment has as its target T12, TNNI3K (Homo sapiens, UniProt Q59H18).
T12 construct: purchased DiscoveRx (Fremont, CA)
The experiment is described as follows: KinomeScan. The class given is binding. The conditions noted are these: read-out: % Control.

The target of the next experiment is T13, TAOK2 (Homo sapiens, UniProt Q9UL54).
T13 construct: purchased DiscoveRx (Fremont, CA)
The experiment is described as follows: KinomeScan. The class given is binding. The following applies: read-out: % Control.

The target of another experiment is T14, MEK2 (Homo sapiens, UniProt P36507).
T14 construct: purchased DiscoveRx (Fremont, CA)
T14 sequence (P36507 whole entry): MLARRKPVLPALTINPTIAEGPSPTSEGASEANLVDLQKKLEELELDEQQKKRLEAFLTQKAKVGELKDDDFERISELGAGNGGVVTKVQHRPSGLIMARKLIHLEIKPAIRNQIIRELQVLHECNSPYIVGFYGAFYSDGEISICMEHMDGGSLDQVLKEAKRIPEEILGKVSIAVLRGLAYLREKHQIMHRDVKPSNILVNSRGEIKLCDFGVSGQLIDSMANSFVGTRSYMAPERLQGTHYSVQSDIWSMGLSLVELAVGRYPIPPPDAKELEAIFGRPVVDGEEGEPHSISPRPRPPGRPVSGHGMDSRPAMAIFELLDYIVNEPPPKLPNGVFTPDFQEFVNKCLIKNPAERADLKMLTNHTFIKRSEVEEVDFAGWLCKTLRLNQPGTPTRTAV
The experiment is described as follows: KinomeScan. In kind it is binding. The following applies: read-out: % Control.

Another experiment concerns the target T15, PLK2 (Homo sapiens, UniProt Q9NYY3).
T15 construct: purchased DiscoveRx (Fremont, CA)
Briefly: KinomeScan. The class given is binding. The conditions noted are these: read-out: % Control.

The target of a further experiment is T16, PAC1 (Homo sapiens, UniProt P41586).
T16 construct: host or cells: Chem-1 cells with Gα15
T16 sequence (P41586 21-468): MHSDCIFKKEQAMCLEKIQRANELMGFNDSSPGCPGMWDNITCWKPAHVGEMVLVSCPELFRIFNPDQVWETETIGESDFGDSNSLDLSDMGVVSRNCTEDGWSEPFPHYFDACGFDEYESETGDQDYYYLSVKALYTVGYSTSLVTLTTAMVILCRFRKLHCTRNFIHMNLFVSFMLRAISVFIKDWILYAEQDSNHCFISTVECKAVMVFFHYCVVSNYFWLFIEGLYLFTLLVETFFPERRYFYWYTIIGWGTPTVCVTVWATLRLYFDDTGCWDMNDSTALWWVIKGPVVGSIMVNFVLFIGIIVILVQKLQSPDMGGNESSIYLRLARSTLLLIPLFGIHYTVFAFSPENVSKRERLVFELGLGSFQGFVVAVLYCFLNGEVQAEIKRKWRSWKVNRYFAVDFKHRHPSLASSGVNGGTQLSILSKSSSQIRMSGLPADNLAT
The experiment is described as follows: GPCR Profiler. The class given is cell-based.

In the next experiment the target is T17, GPR14 (Homo sapiens, UniProt Q9UKP6).
T17 construct: host or cells: Chem-1 cells expressing Gα15
T17 sequence (Q9UKP6 whole entry): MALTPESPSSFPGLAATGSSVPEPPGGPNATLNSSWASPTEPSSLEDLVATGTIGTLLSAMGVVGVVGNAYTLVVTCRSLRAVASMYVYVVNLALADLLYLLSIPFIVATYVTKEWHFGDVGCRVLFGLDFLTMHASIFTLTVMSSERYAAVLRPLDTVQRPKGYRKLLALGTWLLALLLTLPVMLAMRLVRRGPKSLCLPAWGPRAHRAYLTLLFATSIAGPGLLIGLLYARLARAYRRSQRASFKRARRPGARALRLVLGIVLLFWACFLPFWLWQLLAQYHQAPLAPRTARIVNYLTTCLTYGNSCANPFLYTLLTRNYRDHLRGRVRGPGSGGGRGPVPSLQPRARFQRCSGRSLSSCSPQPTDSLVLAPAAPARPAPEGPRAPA
Briefly: GPCR Profiler. The class given is cell-based. The conditions noted are these: 12.5 uM.

The next experiment has as its target T18, PIP5K2B (Homo sapiens, UniProt P78356).
T18 construct: purchased DiscoveRx (Fremont, CA)
Briefly: KinomeScan. The class given is binding. The conditions noted are these: read-out: % Control.

The target of a further experiment is T19, AXL (Homo sapiens, UniProt P30530).
T19 construct: purchased DiscoveRx (Fremont, CA)
T19 sequence (P30530 26-894): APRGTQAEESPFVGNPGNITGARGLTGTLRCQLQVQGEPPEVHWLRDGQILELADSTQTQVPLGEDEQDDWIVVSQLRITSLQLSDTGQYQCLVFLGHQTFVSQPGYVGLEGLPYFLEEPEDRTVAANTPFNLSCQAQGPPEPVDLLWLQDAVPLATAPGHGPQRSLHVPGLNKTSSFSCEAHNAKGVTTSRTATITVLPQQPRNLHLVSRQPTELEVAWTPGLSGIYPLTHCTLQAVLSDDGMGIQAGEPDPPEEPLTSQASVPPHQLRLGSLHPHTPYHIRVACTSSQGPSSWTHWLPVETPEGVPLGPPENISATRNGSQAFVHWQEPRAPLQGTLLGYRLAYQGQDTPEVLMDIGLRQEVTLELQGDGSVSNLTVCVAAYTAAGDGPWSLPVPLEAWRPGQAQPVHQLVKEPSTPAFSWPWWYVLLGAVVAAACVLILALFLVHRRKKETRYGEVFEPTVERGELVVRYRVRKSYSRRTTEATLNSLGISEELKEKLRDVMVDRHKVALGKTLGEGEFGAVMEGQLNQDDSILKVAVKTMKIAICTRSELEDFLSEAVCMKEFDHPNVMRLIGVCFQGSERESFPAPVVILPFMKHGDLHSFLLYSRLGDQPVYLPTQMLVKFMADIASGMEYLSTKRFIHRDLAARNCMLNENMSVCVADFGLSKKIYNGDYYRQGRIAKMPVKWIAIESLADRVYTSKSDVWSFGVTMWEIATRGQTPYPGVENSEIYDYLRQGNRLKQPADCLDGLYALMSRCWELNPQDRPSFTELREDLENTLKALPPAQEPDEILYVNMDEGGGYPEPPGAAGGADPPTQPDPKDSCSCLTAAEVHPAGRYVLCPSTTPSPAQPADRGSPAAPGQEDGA
The experiment is described as follows: KinomeScan. The conditions noted are these: read-out: % Control. The class given is binding.

In another experiment the target is CDKL2 (Homo sapiens, UniProt Q92772). Briefly: KinomeScan. The class given is binding. The conditions noted are these: read-out: % Control.
For a further experiment, the target named is T20, GSK3A (Homo sapiens, UniProt P49840).
T20 construct: purchased DiscoveRx (Fremont, CA)
Briefly: KinomeScan. The following applies: read-out: % Control. In kind it is binding.

Another experiment concerns the target T21, DCAMKL1 (Homo sapiens, UniProt O15075).
T21 construct: purchased DiscoveRx (Fremont, CA), KinomeScan service
The experiment is described as follows: KinomeScan. In kind it is binding. The conditions noted are these: read-out: % Control.

For the next experiment, the target named is T22, LATS1 (Homo sapiens, UniProt O95835).
T22 construct: purchased DiscoveRx
Briefly: KinomeScan. In kind it is binding. The conditions noted are these: read-out: % Control.

The target in another experiment is T23, SRPK1 (Homo sapiens, UniProt Q96SB4).
T23 construct: purchased DiscoveRx (Fremont, CA)
T23 sequence (Q96SB4 whole entry): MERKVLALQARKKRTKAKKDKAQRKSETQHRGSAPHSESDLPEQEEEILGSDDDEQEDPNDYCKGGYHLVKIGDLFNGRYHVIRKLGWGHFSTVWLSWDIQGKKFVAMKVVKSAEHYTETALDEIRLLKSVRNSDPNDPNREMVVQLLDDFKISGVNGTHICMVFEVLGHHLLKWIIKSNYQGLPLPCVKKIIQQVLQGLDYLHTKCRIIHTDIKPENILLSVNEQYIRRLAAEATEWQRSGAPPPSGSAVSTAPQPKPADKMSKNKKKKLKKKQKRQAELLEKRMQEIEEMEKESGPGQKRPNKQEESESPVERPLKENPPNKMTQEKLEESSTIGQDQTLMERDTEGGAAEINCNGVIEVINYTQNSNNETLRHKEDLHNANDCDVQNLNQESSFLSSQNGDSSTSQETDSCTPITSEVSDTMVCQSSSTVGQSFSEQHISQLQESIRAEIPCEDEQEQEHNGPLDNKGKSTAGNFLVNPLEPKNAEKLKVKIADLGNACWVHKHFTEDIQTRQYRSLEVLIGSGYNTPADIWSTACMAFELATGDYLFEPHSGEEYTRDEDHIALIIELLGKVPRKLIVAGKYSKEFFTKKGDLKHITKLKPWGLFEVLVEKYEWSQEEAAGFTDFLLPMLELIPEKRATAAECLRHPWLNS
The experiment is described as follows: KinomeScan. In kind it is binding. The conditions noted are these: read-out: % Control.

The target in another experiment is T24, EP4 (Homo sapiens, UniProt P35408).
T24 construct: host or cells: Chem-1 cells expressing Gα15
T24 sequence (P35408 whole entry): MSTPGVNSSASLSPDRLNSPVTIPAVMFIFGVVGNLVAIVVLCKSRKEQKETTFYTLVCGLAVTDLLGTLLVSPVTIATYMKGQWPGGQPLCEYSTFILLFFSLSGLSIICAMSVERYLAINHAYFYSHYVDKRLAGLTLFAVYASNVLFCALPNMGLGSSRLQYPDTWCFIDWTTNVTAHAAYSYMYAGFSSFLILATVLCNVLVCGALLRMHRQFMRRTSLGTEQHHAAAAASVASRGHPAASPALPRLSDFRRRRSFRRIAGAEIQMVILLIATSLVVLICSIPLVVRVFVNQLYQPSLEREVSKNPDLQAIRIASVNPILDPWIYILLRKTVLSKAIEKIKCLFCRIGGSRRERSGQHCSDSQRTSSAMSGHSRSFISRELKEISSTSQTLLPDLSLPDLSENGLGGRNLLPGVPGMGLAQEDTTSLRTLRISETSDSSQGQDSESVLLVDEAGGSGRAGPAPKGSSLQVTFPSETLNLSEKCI
Briefly: GPCR Profiler. The class given is cell-based.

The target of experiment [1] is T25, RPS6KA4(Kin.Dom.1-N-terminal) (Homo sapiens, UniProt O75676).
T25 construct: RPS6KA4(Kin.Dom.1-N-terminal); purchased DiscoveRx (Fremont, CA)
Briefly: KinomeScan. The class given is binding. The following applies: read-out: % Control.

A further experiment deals with T26, MKNK1 (Homo sapiens, UniProt Q9BUB5).
T26 construct: purchased DiscoveRx
The experiment is described as follows: KinomeScan. The conditions noted are these: read-out: % Control. The class given is binding.

The target of the next experiment is T27, ASK1 (Homo sapiens, UniProt Q99683).
T27 construct: purchased DiscoveRx (Fremont, CA)
The experiment is described as follows: KinomeScan. The conditions noted are these: read-out: % Control. In kind it is binding.

The target of another experiment is T28, FGFR3(G697C) (Homo sapiens, UniProt P22607, G697C).
T28 construct: purchased DiscoveRx (Fremont, CA)
Briefly: KinomeScan. The conditions noted are these: read-out: % Control. In kind it is binding.

A further experiment concerns the target T29, DAPK3 (Homo sapiens, UniProt O43293).
T29 construct: purchased DiscoveRx (Fremont, CA), KinomeScan service
The experiment is described as follows: KinomeScan. The conditions noted are these: read-out: % Control. In kind it is binding.

The next experiment has as its system U87. Briefly: MitoTracker / TMRM staining. In kind it is cell-based, human. The text has this: Lipid peroxidation associated with ferroptosis is known to disrupt mitochondrial membranes, resulting in smaller mitochondria.
In a further experiment the test system is HEK293. The experiment is described as follows: Liperfluo lipid peroxidation, HEK293. In kind it is cell-based, human. As to the method: Cells were plated on a 100 mm cell culture dish (CELLTREAT Scientific Products) in 10 mls of DMEM with high glucose, GlutaMAX, HEPES, Penicillin-Streptomycin (ThermoFisher™) and 10% FBS. Cells were incubated overnight at 37° C. in 5% CO2. Media were then replaced with […] fresh media with DMSO, OGM2, or Erastin (APExBIO Technology™) and the cells incubated for 3 days. On the third day, 3 mL fresh media with 2.5 μM Liperfluo™ (Dojindo Molecular Technologies™, Inc.) resuspended in DMSO was added and cells were incubated at 37° C. in 5% CO2 for 1 hour. Cells were subsequently trypsinized for 5 minutes, pelleted by centrifugation, and resuspended in cell sorting media (1% BSA and 1 mM EDTA in PBS pH 7.4). Ten thousand events were recorded on a BD LSR II and the data processed using the FlowJo™ software.

T5 sequence (Q9UIK4 whole entry): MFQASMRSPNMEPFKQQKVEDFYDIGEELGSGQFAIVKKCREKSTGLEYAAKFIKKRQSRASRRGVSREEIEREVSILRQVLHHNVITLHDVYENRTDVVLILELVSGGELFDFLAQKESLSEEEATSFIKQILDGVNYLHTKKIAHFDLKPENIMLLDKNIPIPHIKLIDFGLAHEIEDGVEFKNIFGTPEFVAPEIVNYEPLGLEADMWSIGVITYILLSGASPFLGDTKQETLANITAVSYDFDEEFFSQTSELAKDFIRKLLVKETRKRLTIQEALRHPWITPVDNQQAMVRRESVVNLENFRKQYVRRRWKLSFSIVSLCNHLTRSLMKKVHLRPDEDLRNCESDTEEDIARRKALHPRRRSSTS

As to `CCc1ccc2c(c1)C1(NN=C(c3cccc4ccccc34)S1)C(=O)N2` (centres unmarked) [OGM1, 5-ethyl-5′-naphthalen-1-ylspiro[1H-indole-3,2′-3H-1,3,4-thiadiazole]-2-one], the remaining binding at 10 µM on ERBB4 was determined as 100%; at CSNK1G2, 100%; on AURKA, 100%; at DAPK2, 89%; on RET(V804M), 100%; at CAMK1, 50%. Also, the remaining binding at 10 µM on MAP4K5 came out at 100%; at EPHB1, 100%; at TLK2, 71%; at TNNI3K it was 100%; at TAOK2 it was 81%; at MEK2, 94%. Moreover, the remaining binding at 10 µM on PLK2 was 100%; on PIP5K2B, 100%; on AXL it was 100%; at CDKL2, 100%; at GSK3A it was 78%; at DCAMKL1, 72%. Further, the remaining binding at 10 µM on LATS1 was 100%; at SRPK1, 77%; in [1] it was 92%; on MKNK1, 90%; on ASK1, 100%; at FGFR3(G697C), 99%. The remaining binding at 10 µM on DAPK3 was determined as 91%. Besides, the Antagonism was −3.4 on OX2 (10 uM); 4 on CCR7 (10 uM); −13.7 at CRF2 (10 uM); 5.8 at PAC1 (10 uM); −17 on EP4 (10 uM). Also, the Agonism on OX2 (12.5 uM) is reported as 0.2; on CCR7 (12.5 uM), 0; at CRF2 (12.5 uM), 0.6; at PAC1 (12.5 uM) it was 0.9; at GPR14, 16.8*; at EP4 (12.5 uM), 0.9.

Consider `CCc1ccc2c(c1)C1(NN=C(c3ccccc3)S1)C(=O)N2` (centres unmarked) [OGM2], for which, in the experiment with U87, the “mitochondrial membrane potential (TMRM)” value is “decreased mitochondrial membrane potential”. In the experiment with HEK293, the lipid peroxidation entry was “did not induce lipid peroxidation”.
